Measurements: PMC10778704, “Comparative Analysis of Cyclization Techniques in Stapled Peptides: Structural Insights into Protein–Protein Interactions in a SARS-CoV-2 Spike RBD/hACE2 Model System” (International Journal of Molecular Sciences, 2023)
Bridge positions count the residues as written; N and C are the ends. Peptide text beside a SMILES is read from it.

How the values were obtained:
[1] = BeStSel analysis of Far-UV CD spectra (secondary structure content); assay type: physicochemical; details: from Far-UV CD spectra
Description: This finding prompted us to synthesize the lactam stapled peptides 22 and 23. Similar to our observations of compound 10, we also noted a dominant conformation of 22 attributable to a regular helix1 (53.7%) and an antiparallel, right-twisted β-sheet (46.3%). Therefore, the high percentage of calculated helicity in compounds 10 and 22 can be explained on the basis of the contribution of a strong, negative absorbance band within the 217–218 nm spectral range of the Far-UV CD spectra. Such features are typical of a right-twisted β-sheet.
We were also successful at applying several cyclization strategies across the panel of hACE2 (His34-Gln42)-derived peptides. […] The associated root mean square deviation (RMSD) was 0.5. […] The distortion of the helical conformation can be partially explained by the highly polar nature of our peptide sequence (7 out of 9 amino acids) and inherent limitations in terms of the maximum helicity possible for short peptides due to C- and N-terminal distortions. […] That finding highlights the substantial influence of the initial linear sequence on staple-induced helicity.

[2] = molecular target: SARS-CoV-2 Spike RBD/hACE2 interactions (Severe acute respiratory syndrome coronavirus 2, UniProt P0DTC2); assay type: biochemical, SARS-CoV-2 / human
[3] = 37 °C, comparison in words
[4] = assay type: physicochemical; details: 100 µM in 50/50 TFE/10 mM sodium phosphate buffer, pH 7.4, 25 °C
circular dichroism = details: 10 mM Na phosphate; pH 7.4; 25 °C; 100 uM
in vitro = details: rat, plasma
[5] = Far-UV circular dichroism, calculated percent helicity in phosphate buffer; assay type: physicochemical; details: 100 µM in 10 mM sodium phosphate buffer (PBS), pH 7.4, 25 °C; calculated at 222 nm
Method: Figure 3 Data generated from Far-UV CD spectra for hACE2-derived peptides measured at a concentration of 100 µM in 10 mM sodium phosphate buffer at pH 7.4 and 25 °C. (A) Far-UV CD spectra of hACE2 (Asp30-Asp38)-derived linear and i, i + 4 staple peptides in molar ellipticity per residue. (B) Table listing the derivatives of 1 with a focus on the macrocyclization technique and measure-based calculated helicity (%) via CD. (C) CD spectra of hACE2 (His34-Gln42)-derived linear and i, i + 4 staple peptides in molar ellipticity per residue. (D) Table listing the derivatives of 2 with a focus on the macrocyclization technique and measure-based calculated helicity (%) via CD. HDY 1,5-Hexadiyne; BMB 1,4-Bis(bromomethyl)benzene; HFB hexafluorobenzene. ^a Predicted helicity (%) using AGADIR online software available at http://agadir.crg.es (accessed on 17 April 2023); it is only applicable to peptides consisting of natural amino acids. […]
The raw CD data (mdeg) were converted to mean residue ellipticity ( [θ] , deg·cm^2·dmol^−1·res^−1) by normalizing for peptide concentration, the number of amide bonds and path length, using Equation (2):(2) [θ]=θ/10×C×Np×l where θ is the measured ellipticity (mdeg), C is the peptide molar concentration (M), Np is the number of amino acid residues in the peptide and l is the cell path length (cm).
The maximum mean ellipticity [θ]max was calculated using Equation (3), as reported previously:(3) [θ]max=−44000+250×T×1−k/Np where T is temperature (°C) and k is the number of non-hydrogen-bonded peptide carbonyls. […]

[6] = reference control; cited from earlier work

## CC(=O)N[C@@H](Cc1c[nH]cn1)C(=O)N[C@@H](CCC(=O)O)C(=O)N[C@H]1CCCCNC(=O)C[C@@H](C(=O)N[C@@H](Cc2ccc(O)cc2)C(=O)N[C@@H](CCC(N)=O)C(N)=O)NC(=O)[C@H](CC(C)C)NC(=O)[C@H](CC(=O)O)NC(=O)[C@H](CCC(=O)O)NC1=O [peptide 4, Ac-NH-His-Glu-[Lys-Glu-Asp-Leu-Asp]-Tyr-Gln-CO-NH2] (Ac-HEKEDLDYQ-NH2; lactam 3-7)
[1]
  Distorted helix2 with BeStSel: 18.3%
  Helical content (α-helical character) with BeStSel: 37.0%
  Regular helix1 with BeStSel: 18.7%
[2]
  Luminescence signal (RLUs), disruption of SmBiT-ACE2 + LgBiT-RBD: reduced the luminescence signal
[3]
  Degradation / stability in rat plasma over 24 h: significantly more stable
[4]
  Helicity in 50%TFE (%): 49.4%
Circular dichroism
  helicity: 55.5%
In vitro
  half-life: 5 h

## Ac-NH-Asp-Lys-[Lys-Asn-His-Glu-Asp]-Glu-Asp-[Lys-Phe-Tyr-Gln-Asp]-CO-NH2 [peptide 24]
[5]
  Helicity (%) via CD: 25.2%

## Ac-NH-His-Glu-S5-Glu-Asp-Leu-S5-Tyr-Gln-CO-NH2 [linear 11]
[5]
  Helicity (%) via CD: 11.0%

## Ac-NH-His-Glu-[Lys-Glu-Asp-Leu-dPra]-Tyr-Gln-CO-NH2 [compound 13]
[5]
  Helicity (%) via CD: 18.1%

## Apelin-13 (QRPRLSHKGPMPF; Apelin-13; UniProt Q9ULZ1 65-77, looked up)
[6]
  In vitro half-life (t1/2), in words: short in vitro half-life
